This is an account of results in patent publication US8357811B2, “Crystalline forms of docetaxel and process for preparation thereof” (ScnioPharm Singapore PTE Ltd., priority 2006, dated 2013).

A short description of this data set: Stability of crystalline anhydrous docetaxel and docetaxel trihydrate in solvents (FIG. 2). In kind it is physicochemical. Particulars: for stability in co-water solvent: co-water solvent (ACN/water/acetic acid) vs non-water solvent. From the text: FIG. 2 illustrates the stability of crystalline anhydrous docetaxel and docetaxel trihydrate.

Turning to `CC(=O)O[C@@]12CO[C@@H]1C[C@H](O)[C@@]1(C)C(=O)[C@H](O)C3=C(C)[C@@H](OC(=O)[C@H](O)[C@@H](NC(=O)OC(C)(C)C)c4ccccc4)C[C@@](O)([C@@H](OC(=O)c4ccccc4)[C@H]21)C3(C)C` [anhydrous form of docetaxel, docetaxel], the “stability in acetonitrile compared with acetonitrile/water (9/1)” value (acetonitrile vs acetonitrile/water (9/1)) is “more stable in acetonitrile than in acetonitrile/water (9/1)”. Moreover, the “stability compared with trihydrated form (1883-12-11, 1883-12-21, 2016-109-05)” value (in acetonitrile, FIG. 2) is given as “more stable”. Moreover, where the note is “see FIG. 2, solvent not stated at this place”, the “stability compared with trihydrated form” value was “more stable than trihydrated form”.
Turning to `CC(=O)O[C@@]12CO[C@@H]1C[C@H](O)[C@@]1(C)C(=O)[C@H](O)C3=C(C)[C@@H](OC(=O)[C@H](O)[C@@H](NC(=O)OC(C)(C)C)c4ccccc4)C[C@@](O)([C@@H](OC(=O)c4ccccc4)[C@H]21)C3(C)C` [docetaxel], the “stability in co-water solvent” value is reported as “less stable in co-water solvent”. For the same molecule, for the setting “addition of acetic acid”, the “growth of 7-epi-docetaxel on addition of acetic acid” value is “can be suppressed by the addition of acetic acid”. Further, the “stability in co-water solvent” value (listed as Docetaxel) is reported as “more stable in non-water solvent than co-water solvent”. Where the note is “co-water solvent vs non-water solvent”, the “generation of impurity 7-epi-docetaxel” value is “generated more rapidly in co-water solvent than in non-water solvent”.
